“Also recorded” adds a separate entry of the source.
Columns and labels:
Histamine H2 = Histamine H2 (Homo sapiens, UniProt P25021); test: Eurofins Lead Profiling radioligand binding; conditions: title: 30 μM
ICR male mice = test: acetic acid writhing assay; format: in vivo; conditions: mouse, 0.3, 1, 3 mg/kg PO, 2 h before acetic acid IP, writhes counted 30 min
Protocol: To initially explore the role of TREK-2 activation in analgesia, we evaluated 19b in the acetic acid writhing assay. Injection of acetic acid activates nociceptors directly and/or produces inflamed viscera (subdiaphragmatic organs) and subcutaneous (muscle wall) tissues. The number of writhes (characterized by contraction of the abdominal musculature and extension of the limbs) was then counted for 30 min. Analgesic effect was determined by comparing the number of writhes between in the presence of 19b or vehicle. […] At the 3 mg/kg PO dose of 19b, total brain levels are ∼3 μM and free brain in 0.92 μM and CSF levels in 0.22 μM, providing a good PK/PD relationship and supporting the data generated with the TREK activator 3.
Figure 4 Analgesic effect in acetic acid writhing assay. ICR male mice (6 weeks of age) were pretreated with vehicle (0.5 w/v% Methyl Cellulose in distilled water, PO) or 19b (= ONO-2920632) (0.3, 1, 3 mg/kg, PO) or Indomethacin (10 mg/kg, PO). […] The number of writhes (characterized by contraction of the abdominal musculature and extension of the limbs) was then counted for 30 min. Analgesic effect was determined by comparing the number of writhes between in the presence of compound and in the presence of vehicle (*; p < 0.05 by Student’s t test, #; p < 0.05 by Williams test).

Cannabinoid CB1 = Cannabinoid CB1 (Homo sapiens, UniProt P21554); test: Eurofins Lead Profiling radioligand binding; conditions: title: 30 μM
[1] = system: 72 GPCRs, ion channels and transporters; test: Eurofins Lead Profiling panel (whole panel); format: binding; conditions: for ancillary pharmacology panel result: 72 GPCRs, ion channels and transporters
[2] = biological target: Leukotriene, Cysteinyl CysLT1 (Homo sapiens, UniProt Q9Y271); test: Eurofins Lead Profiling radioligand binding; conditions: title: 30 μM
Interleukin IL-1 R1 = Interleukin IL-1 R1 (Mus musculus, UniProt P13504); test: Eurofins Lead Profiling radioligand binding; conditions: title: 30 μM
Chain of Interleukin IL-1 R1 (P13504 20-576): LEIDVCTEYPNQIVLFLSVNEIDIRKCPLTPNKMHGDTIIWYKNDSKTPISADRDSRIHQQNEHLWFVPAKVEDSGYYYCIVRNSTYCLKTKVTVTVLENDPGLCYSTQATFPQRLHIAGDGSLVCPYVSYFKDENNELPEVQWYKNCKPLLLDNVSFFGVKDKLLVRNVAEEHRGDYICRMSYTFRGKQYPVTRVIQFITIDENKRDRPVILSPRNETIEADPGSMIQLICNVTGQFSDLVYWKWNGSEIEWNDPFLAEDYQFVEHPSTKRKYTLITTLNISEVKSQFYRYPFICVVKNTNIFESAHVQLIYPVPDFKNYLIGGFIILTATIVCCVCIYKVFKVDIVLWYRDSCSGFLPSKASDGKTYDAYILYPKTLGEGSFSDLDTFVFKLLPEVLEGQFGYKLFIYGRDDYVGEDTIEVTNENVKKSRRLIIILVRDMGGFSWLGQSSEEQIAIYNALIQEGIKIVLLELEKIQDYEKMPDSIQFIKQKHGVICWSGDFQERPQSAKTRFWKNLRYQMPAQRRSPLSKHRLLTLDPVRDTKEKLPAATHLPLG

Chain of Cannabinoid CB1 (P21554 whole entry): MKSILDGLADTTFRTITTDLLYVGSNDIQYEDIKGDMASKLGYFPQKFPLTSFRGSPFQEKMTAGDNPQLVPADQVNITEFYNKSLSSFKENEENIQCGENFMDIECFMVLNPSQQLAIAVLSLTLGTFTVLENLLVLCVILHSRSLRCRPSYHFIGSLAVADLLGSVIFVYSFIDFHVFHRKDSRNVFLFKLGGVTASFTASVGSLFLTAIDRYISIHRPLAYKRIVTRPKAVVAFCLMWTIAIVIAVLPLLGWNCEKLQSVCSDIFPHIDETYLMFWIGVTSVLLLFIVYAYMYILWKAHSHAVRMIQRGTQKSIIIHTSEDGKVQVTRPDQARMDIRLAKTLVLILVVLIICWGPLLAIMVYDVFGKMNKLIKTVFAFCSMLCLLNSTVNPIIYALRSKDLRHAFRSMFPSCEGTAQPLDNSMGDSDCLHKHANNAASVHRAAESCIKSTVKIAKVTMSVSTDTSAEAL
Chain of Histamine H2 (P25021 whole entry): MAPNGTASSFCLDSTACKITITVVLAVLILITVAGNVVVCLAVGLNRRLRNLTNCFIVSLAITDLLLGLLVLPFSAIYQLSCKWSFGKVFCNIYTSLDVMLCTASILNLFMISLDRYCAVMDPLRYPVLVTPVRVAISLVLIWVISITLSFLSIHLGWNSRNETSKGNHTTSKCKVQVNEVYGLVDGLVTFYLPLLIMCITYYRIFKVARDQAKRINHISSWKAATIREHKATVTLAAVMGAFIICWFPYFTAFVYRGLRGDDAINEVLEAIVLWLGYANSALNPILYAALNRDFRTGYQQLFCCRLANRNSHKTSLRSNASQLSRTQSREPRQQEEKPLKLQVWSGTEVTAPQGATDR
Chain of Leukotriene, Cysteinyl CysLT1 (Q9Y271 whole entry): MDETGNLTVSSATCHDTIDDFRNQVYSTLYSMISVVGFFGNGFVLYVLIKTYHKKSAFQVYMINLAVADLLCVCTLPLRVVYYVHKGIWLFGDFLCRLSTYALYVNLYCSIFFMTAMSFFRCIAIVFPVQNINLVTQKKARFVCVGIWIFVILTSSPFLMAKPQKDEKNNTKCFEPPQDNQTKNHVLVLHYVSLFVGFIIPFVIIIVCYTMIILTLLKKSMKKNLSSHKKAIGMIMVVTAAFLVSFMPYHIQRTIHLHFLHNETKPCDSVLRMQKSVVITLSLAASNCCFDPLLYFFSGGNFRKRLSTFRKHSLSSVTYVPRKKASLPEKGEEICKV

## O=C(NCc1ccc(OC(F)(F)F)cc1F)c1ccc2ncnn2c1 [Compound 19b]
Histamine H2
  inhibition: -20%
ICR male mice
  analgesic effect (number of writhes): dose-dependently reduces the number of writhes; also recorded: analgesic efficacy at 3 mg/kg PO of comparable magnitude to the positive control indomethacin
ICR male mice; listed as ONO-2920632
  analgesic effect (number of writhes): robust, dose dependent efficacy
Cannabinoid CB1
  inhibition: 17%
[1]; 30 μM, 72 targets
  displacement of any radioligand in the panel: ≤ 50%
[1]
  ancillary pharmacology panel result: clean ancillary pharmacology
[1]; listed as ONO-2920632
  ancillary pharmacology panel result: no significant activity
[2]
  inhibition: 5%
Interleukin IL-1 R1
  inhibition: 9%

Reference: PMC11887051, “Discovery of ONO-2920632 (VU6011887): A Highly Selective and CNS Penetrant TREK-2 (TWIK-Related K+ Channel 2) Preferring Activator In Vivo Tool Compound” (ACS Chemical Neuroscience, 2025)
